The values that follow are results of earlier work, collected in patent US20070065542A1 (Board Of Regents, The University Of Texas System, priority 2005, published 2007).

The structures appear in SMILES notation. Like-named read-outs stand apart in the source and are kept apart here.

The conditions of data set [1]: soluble complexes of calcium, from literature.
The conditions of data set [2]: soluble iron complexes and reference complexes, known values.
For data set [3] the following is noted: dissociation constant.
For data set [4] the following is noted: very high concentration.

In the case of `O=C([O-])CC(O)C(=O)[O-].[Ca+2]` (stereo not drawn) [CaMal], the Stability constant in data set [1] is recorded as 2.19.

As to `O=C1O[C@H]([C@@H](O)CO)C(O)=C1O.[Fe+2]` [Ferrous monohydrogen ascorbate], the Stability constant in data set [2] is recorded as 1.30.

On to `O=C(O)O` [Carbonate anion], for which, in data set [3], the pK1 is given as 6.1 and the pK2 is 10.3.

As to `CC(O)C(=O)O` (stereo not drawn) [Lactic Acid], the pK1 in data set [3] was 3.87.

Turning to `[Cl][Fe]([Cl])[Cl]` [ferric chloride], in data set [4], the “pH at which precipitation of iron occurred” value is 3-4.
